How the values were obtained:
[1] = molecular target: T1, human liver glycogen phosphorylase a (HLGPa) (Homo sapiens, UniProt P06737); assay: Human liver glycogen phosphorylase a enzymatic activity assay; format: biochemical; settings: 15 nM HLGPa, coupled resorufin fluorescence readout, 15 min preincubation; assay run with and without 10 mM glucose, not stated which applies
T1 construct: creating a full-length cDNA fused at the 5′ end to codons for methionine-glycine-alanine-histidine; 6x histidine tag (leader Met-Gly-Ala-His6-Gly-Gly) (N); Tev protease cleavage site (Glu-Asn-Leu-Tyr-Phe-Gln-Gly-Gly) (N); made in house; host or cells: E. coli (bacterial expression plasmid pTXK1007LTev)
T1 sequence (P06737 2-847): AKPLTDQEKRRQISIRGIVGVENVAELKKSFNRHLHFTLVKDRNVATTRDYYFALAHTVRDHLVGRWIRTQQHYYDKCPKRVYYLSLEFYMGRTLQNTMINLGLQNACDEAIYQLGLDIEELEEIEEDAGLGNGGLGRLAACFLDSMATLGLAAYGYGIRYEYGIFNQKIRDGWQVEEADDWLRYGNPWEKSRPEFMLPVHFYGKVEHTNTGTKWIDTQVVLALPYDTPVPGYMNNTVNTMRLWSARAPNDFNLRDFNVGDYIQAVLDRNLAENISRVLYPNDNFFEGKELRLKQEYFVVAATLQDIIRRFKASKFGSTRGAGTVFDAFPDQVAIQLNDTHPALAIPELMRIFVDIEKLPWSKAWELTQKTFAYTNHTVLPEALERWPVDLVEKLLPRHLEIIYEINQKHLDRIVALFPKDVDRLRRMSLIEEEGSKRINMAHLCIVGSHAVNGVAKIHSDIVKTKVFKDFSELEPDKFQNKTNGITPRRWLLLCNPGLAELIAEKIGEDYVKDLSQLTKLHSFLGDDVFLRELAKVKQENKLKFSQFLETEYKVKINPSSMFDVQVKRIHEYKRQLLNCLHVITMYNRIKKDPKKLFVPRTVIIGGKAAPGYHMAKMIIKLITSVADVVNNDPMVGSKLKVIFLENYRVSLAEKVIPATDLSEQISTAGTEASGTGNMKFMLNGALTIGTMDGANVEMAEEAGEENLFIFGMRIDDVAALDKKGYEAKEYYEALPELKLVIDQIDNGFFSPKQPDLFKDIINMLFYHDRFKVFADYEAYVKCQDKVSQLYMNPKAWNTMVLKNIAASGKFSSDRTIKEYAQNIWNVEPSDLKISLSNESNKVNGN
Source text: The purified glycogen phosphorylase (GP) enzyme, wherein glycogen phosphorylase is in the activated “a” state, referred to as human liver glycogen phosphorylase a (HLGPa), can be obtained according to the following procedures.
Human liver glycogen phosphorylase cDNA was amplified by polymerase chain reaction (PCR) from a commercially available human liver cDNA library (BD Biosciences). The cDNA was amplified as 2 overlapping fragments using the primers 5′[…]3′ with 5′[…]3′ and 5′[…]3′ with 5′[…]3′. PCR conditions were 94° C. 1 min., 55° C. 1 min., 72° C. 2 min. for 40 cycles using the enzyme Pfu Turbo (Stratagene), 0.5% DMSO, 250 uM each nucleotide triphosphate, and 0.4 uM each primer plus the buffer recommended by the polymerase manufacturer. Each PCR fragment was molecularly cloned and the DNA sequence of each insert was determined. […] The DNA sequence of both strands of the cDNA in pTXK1007LTev was determined. […]
Frozen purified glycogen phosphorylase (HLGPb) was thawed in at 4° C. then dialyzed overnight into 50 mM HEPES, 100 mM NaCl, pH 7.4. […] The degree of phosphorylation was monitored by following the increase in activity at 10 minute intervals using the assay system outlined below. […]

male CD rats = assay: In vivo glucagon challenge model; parameters: species or system rat; settings: glucagon 10 ug/kg + Sandostatin 0.5 mg/kg i.v. 2 hr after dosing, serum glucose 0-20 min
Protocol: Jugular vein cannulated male CD rats (220-260 g) (Charles Rivers, Raleigh, N.C.) were received 1-2 days after cannulation, housed individually on Alpha-dri™ bedding (Shepherd Specialty Papers, Inc., Kalamazoo, Mich.) with free access to food (Lab Diet 5001, PMI Nutrition International, Brentwood, Mo.) and water and maintained on a 12 h light/dark cycle at 21° C. and 50% relative humidity for 3-4 days prior to the glucagon challenge studies. On the day of the study, the rats were sorted by body weight into treatment groups (N=4-5) and housed individually in shoe box cages with clean Alpha-dri bedding. The cannula lines were opened by removal of 0.2 ml blood and flushed with 0.2 ml sterile saline. After a one hour acclimation, blood samples were collected to determine basal glucose and the rats were orally dosed with vehicle (5% DMSO: 30% Solutol HS15: 20% PEG400: 45% 25 mM N-methylglucamine) or drug (5 ml/kg). Two hr after drug dosing, a time zero blood sample (0.4 ml) was collected for determination of glucose and the rats were dosed through the jugular vein with Sandostatin, 0.5 mg/kg, (Novartis Pharmaceuticals Corp., East Hanover, N.J.) and glucagon, 10 ug/kg (Bedford Laboratories, Bedford, Ohio). Blood samples were collected after 10 and 20 min for glucose determination. Whole blood was placed in a Terumo Capiject blood collection tube (Terumo Medical Corp., Elkton, Md.), allowed to sit at room temperature for 20-30 minutes and then centrifuged (3,000×G) to obtain serum. Serum levels of glucose were determined using an Olympus AU640™ clinical chemistry immuno-analyzer (Olympus America Inc., Melville, N.Y.). The % reduction (% R) of the vehicle glucose AUC was calculated for each drug treatment using the formula % reduction=100*1−(AUC drug/AUC vehicle), where AUG was calculated from serum glucose values using the equation AUG=(T0+T10)/2*10+(T10+T20)/2*10−(T0*20).

## COCCOc1ccc(C(=O)N[C@H](C(=O)O)[C@@H](C)OC(C)(C)C)c(NC(=O)Nc2c(C)cc(CC3CC3)cc2C)c1 [Example 1, N-[(2-[({[4-(Cyclopropylmethyl)-2,6-dimethylphenyl]amino}carbonyl)amino]-4-{[2-(methyloxy)ethyl]oxy}phenyl)carbonyl]-O-(1,1-dimethylethyl)-L-threonine]
[1]
  IC50: 4 nM
Male CD rats; 0.1 mg/kg oral
  % R (% reduction of the vehicle glucose AUC): 4%
Male CD rats; 0.5 mg/kg oral
  % R (% reduction of the vehicle glucose AUC): 36%
Male CD rats; 2 mg/kg oral
  % R (% reduction of the vehicle glucose AUC): 48%
Male CD rats; 5 mg/kg oral
  % R (% reduction of the vehicle glucose AUC): 76%

From patent US20100305207A1, “GLYCOGEN PHOSPHORYLASE INHIBITOR COMPOUND AND PHARMACEUTICAL COMPOSITION THEREOF” (priority 2007, published 2010)
